Results as given in US9944670B2, “Gemcitabine derivatives, compositions comprising same and pharmaceutical applications thereof” (HANGZHOU MINSHENG INSTITUTES FOR PHARMA RESEARCH CO., LTD, priority 2013, dated 2018).
Where “and” joins values, the source holds several entries; their conditions need not be identical. Identical values can stand only once. Counter-ions that a name gives are not always drawn.

Columns and labels:
[1] = tested on: MCF-7-ADR; test: MTT cytotoxic activity against drug-resistant tumor cell line; format: cell-based, Human; conditions: for IC50: NCI/ADR-RES, doxorubicin-resistant human breast cancer cells, 48 hours incubation, MTT, Bliss method
Procedure: Purpose: Compare differences of cytotoxic activity against drug-resistant tumor cell lines between gemcitabine derivatives (Compounds of examples 1-9 of the present invention) and gemcitabine (known compound, as “comparative example” in the table below).
Materials and Methods: Human breast cancer doxorubicin-resistant cell line MCF-7-ADR was cultured in 1640 medium containing 5% fetal calf serum; gemcitabine and its derivative GI-06 were dissolved in DMSO, frozen preserved at −20° C., and diluted by 1640 medium containing 5% fetal calf serum to the appropriate concentration before they were used. The final concentration of DMSO solution was 0.5%. Activity tests: MCF-7-ADR cells in the logarithmic growth phase were seeded 3×10^3 per well in 96-well culture plates. The medium was changed after incubating for 24 hours by adding test solutions at different concentrations, while the control group was added DMSO medium with concentration of 0.5%, and the cells continued to be incubated for 48 hours. Then the cell activity was assayed by MTT. Inhibition rate (%)=([…](absorbance of the blank control group−absorbance of the administration group)/absorbance of the blank control group)×100%; IC50: calculated by Bliss method.

[2] = tested on: HCT-116 colon cancer; test: Growth of subcutaneous transplanted tumor in nude mice bearing HCT-116 colon cancer
Source text: Purpose: 4 compounds' influence to the growth of subcutaneous transplanted tumor in nude mice bearing HCT-116 colon cancer
Positive control: Gemcitabine hydrochloride.
Experimental animals: Nude mice, female, 4-5 weeks old, 60 cases.
Cell lines: HCT-116 colon cancer cell.
Modeling: Five mice were inoculated by cell suspension before the experiment, after passaging 4 times in nude mice, prepared model by subcutaneous inoculation using the interpolation block tumor masses.
Route of administration: Gemcitabine hydrochloride group was adminstered by intraperitoneal injection, the rest groups were adminstered by oral gavage.
The adminstered volume: 0.1 ml/10 g
Observation time: Consecutive observation for 15 days after administration, tumor volume was measured twice a week. Stop administration at the 15th day.

[3] = tested on: A2780 ovarian cancer; test: Growth of subcutaneous transplanted tumor in nude mice bearing A2780 ovarian cancer
Source text: Test sample: GI-06; Positive control: gemcitabine hydrochloride
Experimental animals: nude mice, female, 4-5 weeks old, 40 cases.
Cell lines: A2780 ovarian cancer cell, purchased from Shanghai institute of cell biology.
Grouping: When tumor volume grew to 100 mm^3, nude mice which reached standard were randomly divided into five groups, namely solvent control group, gemcitabine hydrochloride group, GI-06 high, medium, low dosage groups, 6 nude mice in each group.
The administration volume: 0.1 ml/10 g
Frequency of administration: Gemcitabine hydrochloride was respectively adminstered twice in the first and third week (D1, D4, D15, D18), 4 times in total; Each GI-06 dosage group was adminstered once a day, 21 days in total.
Animals were sacrificed on the 22nd day, the tumors were weighed.
Statistical Methods: Excel statistical software package, ANOVA analysis.

[4] = 15 mg/kg oral gavage, five consecutive days a week, 10 times in total
[5] = low dosage 5 mg/kg oral gavage, 12 times in total
[6] = medium dosage 10 mg/kg oral gavage, 12 times in total
[7] = high dosage 12 mg/kg oral gavage once a day, 21 days
[8] = low dosage 4 mg/kg oral gavage once a day, 21 days
[9] = medium dosage 8 mg/kg oral gavage once a day, 21 days
[10] = 160 mg/kg intraperitoneal injection, D1 and D4, twice in total
[11] = 160 mg/kg intraperitoneal injection, D1, D4, D15, D18

| Weight (g) D15 [2, 4] [g] | Compound | IC50 [1] [µM] | T/C (%) D15 [2, 4] | Tumor volume (mm^3) D15 [2, 4] | further results |
| --- | --- | --- | --- | --- | --- |
|  | CC(C)(C)c1cnc(CSc2cnc(NC(=O)C(=O)Nc3ccn([C@@H]4O[C@H](CO)[C@@H](O)C4(F)F)c(=O)n3)s2)o1 [GI-01, N-(5-(((5-(t-butyl)oxazol-2-yl)methyl)thio)thiazol-2-yl)-N′-(1-((2R,4R,5R)-3,3-difluoro-4-hydroxy-5-(hydroxymethyl)tetrahydrofuran-2-yl)-2-oxo-1,2-dihydro-pyrimidin-4-yl)oxamide] | 5.56 |  |  |  |
|  | CC(C)(C)c1cnc(CSc2cnc(NC(=O)CC(=O)Nc3ccn([C@@H]4O[C@H](CO)[C@@H](O)C4(F)F)c(=O)n3)s2)o1 [GI-02, N-(5-(((5-(t-butyl)oxazol-2-yl)methyl)thio)thiazol-2-yl)-N′-(1-((2R,4R,5R)-3,3-difluoro-4-hydroxy-5-(hydroxymethyl)tetrahydrofuran-2-yl)-2-oxo-1,2-dihydro-pyrimidin-4-yl)malonamide] | 4.77 |  |  |  |
|  | CC(C)(C)c1cnc(CSc2cnc(NC(=O)CCC(=O)Nc3ccn([C@@H]4O[C@H](CO)[C@@H](O)C4(F)F)c(=O)n3)s2)o1 [GI-03, N-(5-(((5-(t-butyl)oxazol-2-yl)methyl)thio)thiazol-2-yl)-N′-(1-((2R,4R,5R)-3,3-difluoro-4-hydroxy-5-(hydroxymethyl)tetrahydrofuran-2-yl)-2-oxo-1,2-dihydro-pyrimidin-4-yl)succinamide] | 6.13 |  |  |  |
| 19.9 ± 1.2 | CC(C)(C)c1cnc(CSc2cnc(NC(=O)CCCC(=O)Nc3ccn([C@@H]4O[C@H](CO)[C@@H](O)C4(F)F)c(=O)n3)s2)o1 [GI-04, N-(5-(((5-(t-butyl)oxazol-2-yl)methyl)thio)thiazol-2-yl)-N′-(1-((2R,4R,5R)-3,3-difluoro-4-hydroxy-5-(hydroxymethyl)tetrahydrofuran-2-yl)-2-oxo-1,2-dihydro-pyrimidin-4-yl)glutaramide] | 3.15 | 60.9% | 1008.78 ± 174.29 mm^3 |  |
| 18.1 ± 1.2 | CC(C)(C)c1cnc(CSc2cnc(NC(=O)CCCCC(=O)Nc3ccn([C@@H]4O[C@H](CO)[C@@H](O)C4(F)F)c(=O)n3)s2)o1 [GI-05, N-(5-(((5-(t-butyl)oxazol-2-yl)methyl)thio)thiazol-2-yl)-N′-(1-((2R,4R,5R)-3,3-difluoro-4-hydroxy-5-(hydroxymethyl)tetrahydrofuran-2-yl)-2-oxo-1,2-dihydro-pyrimidin-4-yl)adipamide] | 2.46 | 56.14% | 935.14 ± 130.33 mm^3 |  |
| 18.0 ± 1.5 | CC(C)(C)c1cnc(CSc2cnc(NC(=O)CCCCCC(=O)Nc3ccn([C@@H]4O[C@H](CO)[C@@H](O)C4(F)F)c(=O)n3)s2)o1 [GI-06, N-(5-(((5-(t-butyl)oxazol-2-yl)methyl)thio)thiazol-2-yl)-N′-(1-((2R,4R,5R)-3,3-difluoro-4-hydroxy-5-(hydroxymethyl)tetrahydrofuran-2-yl)-2-oxo-1,2-dihydro-pyrimidin-4-yl)pimelamide] | 1.38 | 12% and 12.64% | 208.14 ± 80.53⋆ mm^3 | T/C (%) D15 [2, 5]: 27% and 27.50%; Tumor volume (mm^3) D15 [2, 5]: 45.172 ± 214.92⋆ mm^3; Weight (g) D15 [2, 5]: 17.2 ± 0.8 g; T/C (%) D15 [2, 6]: 13% and 13.09%; Tumor volume (mm^3) D15 [2, 6]: 222.43 ± 113.48⋆ mm^3; Weight (g) D15 [2, 6]: 17.5 ± 1.1 g; T/C (%) D22 [3, 7]: 0.46%; Tumor volume (mm^3) D22 [3, 7]: 19.83 ± 35.11^⋆ mm^3; T/C (%) D22 [3, 8]: 39.55%; Tumor volume (mm^3) D22 [3, 8]: 1757.57 ± 1306.74^⋆ mm^3; T/C (%) D22 [3, 9]: 2.11%; Tumor volume (mm^3) D22 [3, 9]: 92.38 ± 159.91^⋆ mm^3; inhibitory activity against MCF-7-ADR proliferation (in words) ([1]; compared with gemcitabine): strongest anti-tumor activity |
|  | CC(C)(C)c1cnc(CSc2cnc(NC(=O)CCCCCCC(=O)Nc3ccn([C@@H]4O[C@H](CO)[C@@H](O)C4(F)F)c(=O)n3)s2)o1 [GI-07, N-(5-(((5-(t-butyl)oxazol-2-yl)methyl)thio)thiazol-2-yl)-N′-(1-((2R,4R,5R)-3,3-difluoro-4-hydroxy-5-(hydroxymethyl)tetrahydrofuran-2-yl)-2-oxo-1,2-dihydro-pyrimidin-4-yl)suberamide] | 3.55 |  |  |  |
|  | CC(C)(C)c1cnc(CSc2cnc(NC(=O)CCCCCCCC(=O)Nc3ccn([C@@H]4O[C@H](CO)[C@@H](O)C4(F)F)c(=O)n3)s2)o1 [GI-08, N-(5-(((5-(t-butyl)oxazol-2-yl)methyl)thio)thiazol-2-yl)-N′-(1-((2R,4R,5R)-3,3-difluoro-4-hydroxy-5-(hydroxymethyl)tetrahydrofuran-2-yl)-2-oxo-1,2-dihydro-pyrimidin-4-yl)azelamide] | 3.29 |  |  |  |
| 18.6 ± 1.4 | CC(C)(C)c1cnc(CSc2cnc(NC(=O)CCCCCCCCC(=O)Nc3ccn([C@@H]4O[C@H](CO)[C@@H](O)C4(F)F)c(=O)n3)s2)o1 [GI-09, N-(5-(((5-(t-butyl)oxazol-2-yl)methyl)thio)thiazol-2-yl)-N′-(1-((2R,4R,5R)-3,3-difluoro-4-hydroxy-5-(hydroxymethyl)tetrahydrofuran-2-yl)-2-oxo-1,2-dihydro-pyrimidin-4-yl)sebacamide] | 2.66 | 43.26% | 724.50 ± 158.19 mm^3 |  |
|  | Nc1ccn([C@@H]2O[C@H](CO)[C@@H](O)C2(F)F)c(=O)n1 [Gemcitabine hydrochloride, reference compound] |  |  |  | Tumor volume (mm^3) D15 [2, 10]: 99.90 ± 55.92⋆ mm^3; Weight (g) D15 [2, 10]: 20.0 ± 1.5 g; T/C (%) D15 ([2]; 160 mg/kg intraperitoneal injection, D1 and D4, twice in total, hydrochloride): 5.83%; T/C (%) D15 ([2]; 160 mg/kg intraperitoneal injection, D1 and D4, twice in total, listed as gemcitabine hydrochloride, hydrochloride): 5.8%; Tumor volume (mm^3) D22 [3, 11]: 59.97 ± 72.33^⋆ mm^3 |
|  | Nc1ccn([C@@H]2O[C@H](CO)[C@@H](O)C2(F)F)c(=O)n1 [gemcitabine] | > 10 |  |  | T/C (%) D22 [3, 11]: 1.32% |
